The record followed here is ChEMBL document CHEMBL1145146, “Synthesis of digalactosyl diacylglycerols and their structure-inhibitory activity on human lanosterol synthase” (Bioorg Med Chem Lett, 2005).

One assay addresses Beta-secretase 1 (Homo sapiens, UniProt P56817). In words: Binding affinity against human brain memapsin 2. Format: tissue-based.
The target in assay [1] is T1, Lanosterol synthase (Homo sapiens) (UniProt P48449).
T1 sequence (whole entry): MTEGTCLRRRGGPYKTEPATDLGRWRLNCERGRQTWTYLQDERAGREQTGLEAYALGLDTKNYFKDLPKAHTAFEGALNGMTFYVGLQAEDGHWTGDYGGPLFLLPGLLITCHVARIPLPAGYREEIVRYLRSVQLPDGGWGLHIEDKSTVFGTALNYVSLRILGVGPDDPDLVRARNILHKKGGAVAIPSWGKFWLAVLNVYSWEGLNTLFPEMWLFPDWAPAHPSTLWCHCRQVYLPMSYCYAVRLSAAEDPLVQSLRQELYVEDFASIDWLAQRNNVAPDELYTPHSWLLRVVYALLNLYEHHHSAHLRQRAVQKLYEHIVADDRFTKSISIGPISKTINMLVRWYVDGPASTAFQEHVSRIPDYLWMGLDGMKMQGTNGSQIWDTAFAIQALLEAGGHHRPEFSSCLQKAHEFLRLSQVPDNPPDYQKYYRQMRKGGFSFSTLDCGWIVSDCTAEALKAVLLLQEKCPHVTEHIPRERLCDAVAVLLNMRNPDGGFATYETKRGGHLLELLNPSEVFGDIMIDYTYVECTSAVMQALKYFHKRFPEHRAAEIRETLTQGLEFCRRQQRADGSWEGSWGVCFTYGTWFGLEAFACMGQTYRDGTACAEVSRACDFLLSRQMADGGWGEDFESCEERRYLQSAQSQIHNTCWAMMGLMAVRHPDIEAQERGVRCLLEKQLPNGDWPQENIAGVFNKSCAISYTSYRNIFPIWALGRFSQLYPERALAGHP
Description: Inhibitory activity against lanosteral synthase at 0.5 umol/assay. Set-up: scale not given: the % may be the effect or the level left.

Assay [2] has as its target T1, Lanosterol synthase (Homo sapiens). Description: Inhibitory activity against lanosteral synthase at 0.25 umol/assay; n.d. = not detected.
The target is the same in assay [3]. In words: Inhibitory activity against lanosteral synthase at 0.4 umol/assay. Set-up: scale not given: the % may be the effect or the level left.
The target is the same in assay [4]. In words: Inhibitory activity against lanosteral synthase at 0.25 umol/assay. Set-up: scale not given: the % may be the effect or the level left.
Assay [5] shares this target. Description: Inhibitory activity against lanosteral synthase at 0.5 umol/assay; n.d. = not detected.

Each structure is given as a SMILES string. pKi: −log10 of the molar value.

Sequence of Beta-secretase 1 (P56817 whole entry): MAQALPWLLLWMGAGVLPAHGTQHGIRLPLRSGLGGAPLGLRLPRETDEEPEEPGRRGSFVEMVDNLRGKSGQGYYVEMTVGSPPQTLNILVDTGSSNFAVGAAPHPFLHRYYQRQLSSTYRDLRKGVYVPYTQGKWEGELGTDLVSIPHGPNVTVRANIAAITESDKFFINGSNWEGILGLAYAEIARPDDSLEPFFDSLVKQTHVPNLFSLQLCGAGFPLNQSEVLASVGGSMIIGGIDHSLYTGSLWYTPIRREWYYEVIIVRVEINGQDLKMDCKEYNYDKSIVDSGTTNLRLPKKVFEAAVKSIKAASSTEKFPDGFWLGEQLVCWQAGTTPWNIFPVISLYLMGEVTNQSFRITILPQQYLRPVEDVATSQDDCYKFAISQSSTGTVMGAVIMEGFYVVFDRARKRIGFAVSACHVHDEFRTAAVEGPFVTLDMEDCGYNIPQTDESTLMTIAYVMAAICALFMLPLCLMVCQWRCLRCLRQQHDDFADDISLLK

In turn, `C=CCNC(=O)C[C@H](NC(=O)C(NC(=O)OCC=C)C(C)C)C(=O)N[C@@H](CC(C)C)[C@@H](O)C[C@@H](C)C(=O)N[C@H](C(=O)NCc1ccccc1)C(C)C` (stereo partly specified) had a pKi on Beta-secretase 1 of 7.58.
In the case of `CC/C=C\C/C=C\C/C=C\CCCCCCCC(=O)OC(COC(=O)CCCCCCC/C=C\CCCCCC)CO[C@@H]1O[C@H](CO[C@H]2O[C@H](CO)[C@H](O)[C@H](O)[C@H]2O)[C@H](O)[C@H](O)[C@H]1O` (stereo partly specified), the results for the Activity in assay [1] and in assay [2] were 20% and “Not detected”, respectively.
`CC/C=C\C/C=C\C/C=C\CCCCCCCC(=O)OC(COC(=O)CCCCCCCCCCCCC)CO[C@@H]1OC(CO)[C@H](O)[C@@H](O)C1O` (stereo partly specified) displayed an Activity in assay [3] of 23%.
On to `CC/C=C\C/C=C\C/C=C\CCCCCCCC(=O)OCC(CO[C@@H]1OC(CO[C@H]2OC(CO)[C@H](O)[C@@H](O)C2O)[C@H](O)[C@@H](O)C1O)OC(=O)CCCCCCCCCCCCC` (stereo partly specified), for which the Activity came to 38% in assay [1] and 22% in assay [4].
For `CCCCCC/C=C\CCCCCCCC(=O)OC(COC(=O)CCCCCCCCCCCCC)CO[C@@H]1OC(CO[C@H]2OC(CO)[C@H](O)[C@@H](O)C2O)[C@H](O)[C@@H](O)C1O` (stereo partly specified), the figures for the Activity in assay [1] and in assay [4] were 45% and 35%, respectively.
The like results for `CCCCCC/C=C\CCCCCCCC(=O)OCC(CO[C@@H]1O[C@H](CO[C@H]2O[C@H](CO)[C@H](O)[C@H](O)[C@H]2O)[C@H](O)[C@H](O)[C@H]1O)OC(=O)CCCCCCC/C=C/CCCCCCCC` (stereo partly specified) were, in that order, 21% and 4%.
In the same order, the values of `CCCCCC/C=C\CCCCCCCC(=O)OCC(CO[C@@H]1O[C@H](CO[C@H]2O[C@H](CO)[C@H](O)[C@H](O)[C@H]2O)[C@H](O)[C@H](O)[C@H]1O)OC(=O)CCCCCCC/C=C\CCCCCC` (stereo partly specified) are 24% and 4%.
For the molecule `OCC(O)CO[C@@H]1O[C@H](CO[C@H]2O[C@H](CO)[C@H](O)[C@H](O)[C@H]2O)[C@H](O)[C@H](O)[C@H]1O` (stereo partly specified), the Activity entry in assay [5] and in assay [2] was “Not detected” each time.
The molecule `CC/C=C\C/C=C\C/C=C\CCCCCCCC(=O)OC(COC(=O)CCCCCCC/C=C\CCCCCC)CO[C@@H]1O[C@H](CO)[C@H](O)C(O)[C@H]1O` (single isomer, unassigned) came in with an Activity in assay [3] of 16%.
In assay [3], `CC/C=C\C/C=C\C/C=C\CCCCCCCC(=O)OCC(CO[C@@H]1O[C@H](CO)[C@H](O)C(O)[C@H]1O)OC(=O)CCCCCCC/C=C\CCCCCCCC` (single isomer, unassigned) returned an Activity of 19%.
Turning to `CC/C=C\C/C=C\C/C=C\CCCCCCCC(=O)OCC(CO[C@@H]1O[C@H](CO[C@H]2O[C@H](CO)[C@H](O)C(O)[C@H]2O)[C@H](O)C(O)[C@H]1O)OC(=O)CCCCCCC/C=C/CCCCCCCC` (single isomer, unassigned), the Activity in assay [1] came out at 31%; in assay [4] it was 8%.
With `CCCCCC/C=C/CCCCCCCC(=O)OC(COC(=O)CCCCCCC/C=C/CCCCCCCC)CO[C@@H]1O[C@H](COC2O[C@H](CO)[C@H](O)C(O)[C@H]2O)[C@H](O)C(O)[C@H]1O` (single isomer, unassigned), the Activity in assay [1] was determined as 46%; in assay [4], 24%.
`CCCCCCCC/C=C/CCCCCCCC(=O)OCC(CO[C@@H]1O[C@H](CO[C@H]2O[C@H](CO)[C@H](O)C(O)[C@H]2O)[C@H](O)C(O)[C@H]1O)OC(=O)CCCCCCC/C=C/CCCCCCCC` (single isomer, unassigned): the Activity is 57% in assay [1] and 42% in assay [4].
In the same order, the values of `CCCCCCCCCCCCCC(=O)OCC(CO[C@@H]1O[C@H](CO[C@H]2O[C@H](CO)[C@H](O)C(O)[C@H]2O)[C@H](O)C(O)[C@H]1O)OC(=O)CCCCCCCCCCCCC` (single isomer, unassigned) are 72% and 51%.
In the same order, the values of `CC/C=C\C/C=C\C/C=C\CCCCCCCC(=O)OCC(CO[C@@H]1O[C@H](CO[C@H]2O[C@H](CO)[C@H](O)C(O)[C@H]2O)[C@H](O)C(O)[C@H]1O)OC(=O)CCCCCCC/C=C\C/C=C\C/C=C\CC` (single isomer, unassigned; 2d) are 45% and 18%.
In the same order, the values of `CC/C=C\C/C=C\C/C=C\CCCCCCCC(=O)OC(COC(=O)CCCCCCC/C=C/CCCCCCCC)CO[C@@H]1O[C@H](CO[C@H]2O[C@H](CO)[C@H](O)C(O)[C@H]2O)[C@H](O)C(O)[C@H]1O` (single isomer, unassigned; 2f) are 40% and 9%.
As to `CC/C=C\C/C=C\C/C=C\CCCCCCCC(=O)OC(COC(=O)CCCCCCC/C=C/CCCCCCCC)CO[C@@H]1O[C@H](CO[C@H]2O[C@H](CO)[C@H](O)C(O)[C@H]2O)[C@H](O)C(O)[C@H]1O` (single isomer, unassigned; 2i), the values for the Activity in assay [1] and in assay [4] were 29% and 7%, respectively.
In the case of `CC/C=C\C/C=C\C/C=C\CCCCCCCC(=O)OCC(CO[C@@H]1O[C@H](CO[C@H]2O[C@H](CO)[C@H](O)C(O)[C@H]2O)[C@H](O)C(O)[C@H]1O)OC(=O)CCCCCCC/C=C\CCCCCC` (single isomer, unassigned; 2j), the Activity worked out at 27% in assay [1] and 3% in assay [4].
For the molecule `CC/C=C\C/C=C\C/C=C\CCCCCCCC(=O)OCC(CO[C@@H]1O[C@H](CO[C@H]2O[C@H](CO)[C@H](O)C(O)[C@H]2O)[C@H](O)C(O)[C@H]1O)OC(=O)CCCCCCC/C=C\C/C=C\C/C=C\CC` (single isomer, unassigned; 2k), the values for the Activity in assay [1] and in assay [2] were 26% and “Not detected”, respectively.
Regarding `CC/C=C\C/C=C\C/C=C\CCCCCCCC(=O)OCC(CO[C@@H]1O[C@H](CO[C@H]2O[C@H](CO)[C@H](O)C(O)[C@H]2O)[C@H](O)C(O)[C@H]1O)OC(=O)CCCCCCC/C=C\CCCCCC` (single isomer, unassigned; 2l), the Activity worked out at 26% in assay [1] and 5% in assay [4].

Broadly, the pKi is the Ki on a negative log10 scale, so that one unit is a factor of ten.
